Data as given in paper PMC6197744, “Triazolo[4,5-d]pyrimidines as Validated General Control Nonderepressible 2 (GCN2) Protein Kinase Inhibitors Reduce Growth of Leukemia Cells” (Computational and Structural Biotechnology Journal, 2018).

Assays:
[1] = target: T1, PKR (Homo sapiens, UniProt P19525); test: radiometric HotSpot kinase assay; assay type: biochemical; settings: for inhibition at 10 µM: 10 μM compound, 10 μM ATP, read-out: % Enzyme inhibition at 10 μM, PKR; for IC50: means of two independent experiments
T1 construct: purchased Reaction Biology Corporation (Malvern, PA)
Experimental: (§1) Compounds 1–9 were screened in a radiometric […] kinase assay against human GCN2 and other kinases involved in the UPR and ISR pathways (Table 1). […] The most soluble of the potent tool compounds (1 and 2) were selected for in vitro cell-based assays where the phosphorylation of eIF2α (p-eIF2α) was used as a readout for GCN2 inhibition.
In vitro compound profiling for recombinant GCN2, PERK, HRI, PKR, or IRE1 kinases were performed at Reaction Biology Corporation (Malvern, PA) using the HotSpot kinase assay. Briefly, all compounds provided for testing were dissolved in 10 mM DMSO stock solutions. Serial dilutions were conducted by epMotion 5070 in DMSO. Specific kinase/substrate mixtures and required cofactors were prepared in reaction buffer (20 mM Hepes (pH 7.5), 10 mM MgCl2, 1 mM EGTA, 0.02% Brij35, 0.02 mg/ml BSA, 0.1 mM Na3VO4, 2 mM DTT, 1% DMSO). Compounds were added to the kinase reaction mixture by Acoustic technology (Echo550; nanoliter range) and incubated for 20 min at room temperature. The kinase reaction was initiated by adding ^33P ATP to a final concentration of 10 μM for single point kinase activity reading or to the ATP Km of GCN2 for IC50 readings. The reaction was incubated or 2 h at room temperature and kinase activity was detected by filter-binding method. IC50 values and curves were generated with GraphPad Prism 7 (GraphPad software).

[2] = test system: HL-60(TB); test: NCI-60 one-dose screen; assay type: cell-based; settings: Homo sapiens, HL-60, 48 h, read-out: Percent growth inhibition
[3] = test system: phosphorylation of eIF2α (p-eIF2α); test: p-eIF2α reduction in amino acid deprived HEK293T cells (Western blot); assay type: cell-based; settings: Homo sapiens, HEK-293T, amino acid deprived 4 h
Experimental: as §1
HEK293T cells were purchased from the American Type Culture Collection and were cultured in Dulbecco's modified Eagle's medium (DMEM; GIBCO-11995) supplemented with 10% fetal bovine serum (FBS) (Corning™ 35015CV) and antibiotics (penicillin, 10,000 UI/ml and streptomycin, 10,000 UI/ml) (Life Technologies, 15,140,122). When indicated, cells were deprived of amino acids for 4 h with DMEM (DMEM; GIBCO-21013024) containing no glutamine, no methionine, no cysteine, and no FBS. Upon starvation, cells were treated with DMSO or compound. All cell lines were maintained in humidified incubators at 37 °C under 5% CO2.
Cells were lysed for 10 min on ice with RIPA lysis buffer (50 mM Tris (pH 8), 150 mM NaCl, 1% NP-40, 0.5% sodium deoxycholate, 0.1% SDS, containing Protease Inhibitor Cocktail (PIC) (ROCHE, 11836170001), 100 mM NaF, 2 mM NaVO4, 1 mM Na B-glycerophosphate). […] IC50s were calculated using dose response – Inhibition nonlinear regression algorithm [[inhibitor] vs. response] in GraphPad Prism 7 (GraphPad Software).

[4] = Permeability assay (PAMPA); assay type: in vitro ADME; settings: pH 7.4, 25 °C, <10 low, >10 high permeability
Experimental: GCN2 compound permeability was determined by PAMPA and was performed by Pharmaron, Inc. (Beijing, China). All compounds and control stock solutions were prepared in DMSO at a concentration of 10 mM. Testosterone and methotrexate were used as control compounds. Compound stock solutions were diluted with PBS (pH 7.4) to a final concentration of 10 μM. A 1.8% solution (w/v) of lecithin in dodecane was prepared and sonicated to ensure a complete dissolution. 5 μL of the lecithin/dodecane mixture were pipetted into each acceptor plate well (top compartment). Immediately after the application of the artificial membrane (within 10 min), 300 μL of PBS (pH 7.4) solution were added to each well of the acceptor plate. 300 μL of drug-containing solutions were added to each well of the donor plate (bottom compartment) in triplicate. The plate lid was replaced and incubated at 25 °C, 60 rpm for 16 h. After incubation, aliquots of 50 μL from each well of acceptor and donor plate were transferred into a 96-well plate and 200 μL of methanol (containing IS: 100 nM Alprazolam, 200 nM Labetalol and 2 μM Ketoprofen) was added to each well. The plate was vortexed at 750 rpm for 100 s. Samples were centrifuged at 3220g for 20 min. The compound concentrations were determined by LC/MS/MS. The effective permeability (Pe), in units of centimeter per second were calculated using the following equation: logPe=logC×−ln1−drugacceptor/drugequilibrium

[5] = test system: 4E-BP mRNA; test: qRT-PCR of 4E-BP mRNA in Drosophila S2 cells; assay type: cell-based; settings: amino acid deprived, 10 μM, 6 h, vs DMSO control
Text: It is known that under normal nutrient conditions the cap-dependent translational inhibitor 4E-BP is not expressed. However stress such as nutrient deprivation is known to trigger the transcriptional induction of 4E-BP. It has recently been shown that GCN2 and its downstream transcription factor, ATF4, mediate 4E-BP induction under amino acid deprivation in Drosophila, S2 cells. To further investigate the downstream effects of 1 and 2 on the amino acid deprivation GCN2 − ATF4 − 4E-BP pathway, the levels of 4E-BP mRNA transcript were monitored. We performed qRT-PCR on Drosophila S2 cells.
Drosophila S2 cell lines were cultured at 25 °C in Schneider's medium (Life Technologies, 21,720,024) and supplemented with 1% penicillin-streptomycin (Life Technologies, 15,140,122). For amino acid deprivation experiments, Schneider's medium lacking amino acids (USBiological Life Sciences, S0100-03) was used. Cells were treated for 6 h with 10 μM inhibitor concatenation or DMSO.
Total RNA was extracted with TRIzol Reagent (Invitrogen, USA). For cDNA synthesis, 200 ng of RNA was transcribed using SuperScript First-Strand Synthesis Kit (Invitrogen, USA). PCR amplification was performed for 25 cycles using taq polymerase (Roche) according to manufacturer's protocol. […] Results were expressed as the relative expression of mRNA levels detected in control samples and were calculated using the ΔΔCt method.

T1 sequence (P19525 whole entry): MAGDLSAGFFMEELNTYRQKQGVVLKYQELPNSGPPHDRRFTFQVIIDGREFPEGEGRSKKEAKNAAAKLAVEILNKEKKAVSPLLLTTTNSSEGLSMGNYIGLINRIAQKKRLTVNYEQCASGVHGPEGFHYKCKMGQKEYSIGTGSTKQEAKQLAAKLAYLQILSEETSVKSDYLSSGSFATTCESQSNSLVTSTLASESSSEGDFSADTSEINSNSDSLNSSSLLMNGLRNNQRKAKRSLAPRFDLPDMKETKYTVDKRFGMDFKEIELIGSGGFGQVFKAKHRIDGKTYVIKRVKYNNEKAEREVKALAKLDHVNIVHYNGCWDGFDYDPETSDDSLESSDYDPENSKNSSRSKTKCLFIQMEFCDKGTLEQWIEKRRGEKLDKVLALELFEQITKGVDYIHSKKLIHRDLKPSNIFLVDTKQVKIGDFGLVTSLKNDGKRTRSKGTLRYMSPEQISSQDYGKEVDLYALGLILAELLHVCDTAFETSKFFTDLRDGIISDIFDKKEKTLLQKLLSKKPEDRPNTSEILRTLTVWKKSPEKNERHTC

Compound | inhibition at 10 µM [1] | IC50 [1] | inhibition at 10 µM [2] | IC50 [3] | Papp at 16 h, 10 μM [4] | relative 4E-BP mRNA levels [5]
CCn1cc(Nc2ncc3nnn(-c4ccc(C(=O)OC)cc4)c3n2)cn1 [Compound 1, Methyl 4-(5-((1-ethyl-1H-pyrazol-4-yl)amino)-3H-[1,2,3]triazolo[4,5-d]pyrimidin-3-yl)benzoate] | 93% | 119 nM | 8.55% | 52.6 nM | 16 ×10⁻⁶ cm/s | decreased
CCOc1ccc(-n2nnc3cnc(Nc4cnn(CC)c4)nc32)cc1 [Compound 2, 3-(4-Ethoxyphenyl)-N-(1-ethyl-1H-pyrazol-4-yl)-3H-[1,2,3]triazolo[4,5-d]pyrimidin-5-amine] | 99% | 39.9 nM | 24.6% | 138 nM | 15.1 ×10⁻⁶ cm/s | decreased
